Data reported in publication PMC11931445, “A Novel Compound QO‐83 Alleviates Acute and Chronic Epileptic Seizures in Rodents by Modulating KV7 Channel Activity” (CNS Neuroscience & Therapeutics, 2025).

Columns and labels:
KV7.2 = target: T1, KV7.2 (Homo sapiens, UniProt O43526); assay: Manual patch clamp, KV7 currents; assay type: cell-based; details: 20 μM XE991
T1 construct: expressed in transfected cells
Procedure: Pipettes (1–6 MΩ) were filled with a solution of KCl (145 mM), MgCl2 (1 mM), HEPES (10 mM), and EDTA (5 mM). The pH was adjusted to 7.2 with NaOH. Electrophysiological measurements were obtained using an AXON Multiclamp 700 B patch‐clamp amplifier. The bath solution contained NaCl (144 mM), KCl (5 mM), MgCl2 (1 mM), CaCl2 (2 mM), and D‐glucose (10 mM), with the pH adjusted to 7.4 using NaOH. The protocol involved an increase in voltage from −120 mV to 40 mV in increments of 10 mV to evoke a series of KV7 currents (1000 ms per pulse) in the bath solution. For details on cell culture, please see Appendix S1 2.2.1.
Statistical differences between multiple groups (mean ± SEM) were compared using one‐ or two‐way ANOVA. Electrophysiological data were analyzed using SPSS version 21 and OriginPro (version 9.1.0). P Peak inward currents obtained from activation protocols were calculated using the following equation: G = I/(Vm‐EK), where G is conductance, I is peak inward current, Vm is instantaneous membrane potential, and EK is equilibrium potential for the […] channel. Conductance data were normalized using maximum conductance and further fitted to the Boltzmann equation: G=Gmax+Gmin−Gmax/1+expVm−V1/2/k , where G is conductance, V1/2 is midpoint of activation, and k is slope factor. The “Spectrum” module of LabChart was used for data analysis of EEG signals, including the calculation of power density and averaging power spectral density (PSD).
Stable Chinese Hamster Ovary (CHO) cell lines expressing specific Kv7 channel subtypes, including KV7.2 and KV7.2/7.3, were cultured in Minimum Essential Medium (MEM) supplemented with 10% fetal calf serum, 1× nonessential amino acids, […], and […] hygromycin B. Concurrently, KV7.4 and KV7.5 channels were stably expressed in Human Embryonic Kidney 293A (HEK293A) cell lines and nurtured in Dulbecco's Modified Eagle Medium (DMEM) high glucose medium supplemented with 10% fetal bovine serum (FBS), […], and […] hygromycin B.

[1] = test system: pilocarpine-induced seizures; assay: Pilocarpine-induced status epilepticus model with EEG; assay type: in vivo, Sprague–Dawley (SD) rats
Excerpt: For animal experiments, we used adult male Sprague–Dawley (SD) rats weighing between 240 and 260 g. Isoflurane anesthesia was used for all operations. Rats were secured in a stereotaxic frame, and the anterior fontanelle was marked 3 mm posteriorly. Additionally, marks were made approximately 3 mm lateral to the midline on both sides to indicate the insertion points for the positive and negative electrodes. A ground electrode was placed subcutaneously in the occipital lobe to eliminate recording noise. Postoperatively, each animal was housed separately in a single cage and provided food and water ad libitum. After a 3‐day adaptation period, electroencephalograms (EEG) were recorded.
The experimental procedure commenced with an intraperitoneal injection of lithium chloride (127 mg/kg). After 24 h, subcutaneous scopolamine methyl nitrate (1 mg/kg) was administered. […] Twenty minutes later, status epilepticus (SE) was induced by administering pilocarpine (100 mg/kg, i.p.). SE was terminated 2 h later by administering 10% chloral hydrate.
The Pilo group, 2 mg/kg XE991 group, and 2 mg/kg XE991 + 1 mg/kg QO‐83 group received an intraperitoneal injection of lithium chloride (127 mg/kg) 24 h prior to testing. Following this, scopolamine methyl nitrate (1 mg/kg) was administered […], and after 10 min, each group was treated with 25% beta‐cyclodextrin, 2 mg/kg XE991, or 2 mg/kg XE991, respectively. After 15 min, 25% beta‐cyclodextrin, 25% beta‐cyclodextrin, or 1 mg/kg QO‐83 was administered. Finally, 25 min later, pilocarpine (100 mg/kg, i.p.) was administered to induce seizures.
Seizure severity was assessed using a standardized scale ranging from 1 to 5, adapted from previous research criteria. Stage 1 encompasses mouth and facial movements, including wet dog shakes. Stage 2 involves head nodding. Stage 3 is characterized by unilateral forelimb clonus. […] Finally, stage 5 manifests as clonus of all limbs accompanied by falling.

liver tissue = assay: Liver toxicity, 28 days gavage; assay type: in vivo, KM mice; details: for liver-body weight ratio compared to control: QO-83 20, Flupirtine 20, APAP 200 mg/kg/d
Procedure: Twenty-four KM mice, half male and half female, weighing between 18 and 22 g, were randomly divided into four groups, each consisting of six mice: a control group, an acetaminophen (APAP) group, a flupirtine (FM) group, and a QO-83 group. The treatment lasted for 28 days, and the drug solvent was a 0.8% sodium carboxymethyl cellulose solution. The control group received an equal amount of 0.8% sodium carboxymethyl cellulose solution. A single dose was administered to each group via gavage, and the dosage volume was calculated based on the body weight of the mice. The control group received 0.8% sodium carboxymethyl cellulose solution, the APAP group received acetaminophen at 200 mg/kg/d, the FM group received […] at 20 mg/kg/d, and the QO-83 group received QO-83 at 20 mg/kg/d. After 28 days of administration, the liver was isolated, fixed in 4% paraformaldehyde for at least 24 h, routinely embedded in paraffin, and sectioned into 3–5 μm continuous slices. Hematoxylin-eosin (HE) staining was performed to observe the pathological structure of the tissue. After staining with HE, the tissue was dehydrated using an alcohol gradient, cleared, and mounted for the observation of liver lesions under a light microscope.

L02 cells = assay: MTT cytotoxicity; assay type: cell-based, human; details: 100 μM; 24h and 48h
Procedure: Normal human liver L02 cells were cultured in RPMI-1640 complete medium and maintained in a humidified incubator at 37°C with 5% CO2. Cell status was observed daily, and the medium was changed every 1–2 days. During the experiment, cells in good condition and in the logarithmic growth phase were selected. After digestion and collection, the cells were evenly suspended, and the cell suspension concentration was adjusted to 5×10^4 cells/mL. A volume of 150 μL was inoculated per well in a 96-well plate, leaving the surrounding wells for the addition of sterilized PBS (100 μL per well) to prevent edge effects. The plate was then placed in an incubator for further incubation. After 12 h of culturing to allow cell adhesion, the culture medium was aspirated from the 96-well plate. Based on the control, QO-83 was added at concentrations of 0.1 μM, 0.3 μM, 1 μM, 3 μM, 10 μM, 30 μM, and 100 μM, along with Flupirtine (100 μM) in a concentration gradient of 150 μL per well, with six replicates for each group. The control group served as the normal control. The cultures were incubated for 24 and 48 h, respectively. After this period, the culture medium was removed, and 50 μL of 5 mg/mL MTT solution was added to each well, followed by continued incubation for 4 h. […] Finally, the absorbance was measured using a microplate reader (preheated for at least 15 min) at a wavelength of 490 nm.

Compound | effect on QO-83-induced increase in KV7.2 channel current (KV7.2) | effect on EEG power density (0–50 Hz and δ, θ, α, β bands) ([1]; 2 mg/kg XE991, compared to PILO group) | seizure grade versus model group ([1]; 2 mg/kg XE991 alone) | seizure latency ([1]; 2 mg/kg XE991 alone, Pilo model 22.73 ± 6.03 min) | liver tissue pathology (HE staining) (liver tissue; QO-83 20 mg/kg/d, APAP 200 mg/kg/d) | liver-body weight ratio compared to control (liver tissue) | effect on cell viability (MTT) (L02 cells)
O=C1c2ccccc2C(Cc2ccncc2)(Cc2ccncc2)c2ccccc21 [XE991] | significantly inhibited the increase in KV7.2 channel current | significantly increased the power density | No significant differences | 8.52 ± 4.73 min | – | – | –
CC(=O)Nc1ccc(O)cc1 [APAP, Acetaminophen] | – | – | – | – | significant pathological changes | increased significantly | –
CCOC(=O)Nc1ccc(NCc2ccc(F)cc2)nc1N [Flupirtine] | – | – | – | – | – | increased significantly | significantly inhibited cell viability
